Test results reported in patent publication US20240197761A1, “FUCOSYLATION AND IMMUNE MODULATION IN CANCER” (H. LEE MOFFITT CANCER CENTER AND RESEARCH INSTITUTE, INC., priority 2021, published 2024).

Columns and labels:
[1] = tested on: NRAS G13D-mutant mouse melanoma (SW1) tumors; assay: SW1 mouse melanoma model ± oral L-fucose: tumor growth, tumor fucosylation, itIC and splenic flow cytometric profiling; assay type: in vivo, C3H/HeN mice; conditions: oral L-fuc
Protocol: Tumors of SW1 or SM1 melanoma cells from […] or C57BL/6 mice, respectively) were digested using 1× tumor digest buffer (0.5 mg/mL Collagenase I, 0.5 mg/mL Collagenase IV, 0.25 mg/mL Hyalyronidase V, 0.1 mg/mL DNAse I in HBSS (Millipore Sigma (St. Louis, MO)). Tumors were homogenized using the Miltenyi MACs dissociator. Red blood cells were lysed using ACK lysis buffer (Life Technologies, (Grand Island, NY)). Tumor homogenate cells were counted using a standard hemocytometer.
(§1) Total TILs were gated first to single cells (based on forward scatter height vs width, followed by side scatter height vs. width). Live cells were gated from the Zombie negative population from the population above. TILs were gated based on splenocyte size from a control spleen. Individual immune subpopulations were sub-gated from the total TIL population using the following staining criteria: CD3+ for CD3+ T cells; CD3+/CD4+/CD8− for CD4+T cells; CD3+/CD4−/CD8+ for CD8+ T cells, CD11c+/CD11b+ for DCs; either NK1.1 (for C57/BL6 mice) or DX5 (for C3H/HeJ) for NK cells; CD11b+/GR1+ for MDSC-like cells; and F4/80+ for macrophages. Single-cell suspensions from tumor and spleen tissue were stained with Live/Dead Zombie NIR (Biolegend, (San Diego, CA)) at 1:1,000 in PBS for 20 min. Cell suspensions were spun down and stained with the following with antibodies at 0.5 μg/ml per antibody: APC anti-mouse CD3, Pacific Blue anti-mouse CD4, BV785 anti-mouse CD8, PerCP anti-mouse CD25, FITC anti-mouse F4/80, PeCy7 anti-mouse CD11c, PE anti-mouse NK1.1 or PE anti-mouse DX5, and PerCP-Cy5.5 anti-mouse CD11 b. After staining, the cells were washed and fixed (2% formaldehyde), followed by another wash and flow cytometric analysis. The compensation controls were prepared using 0.5 μg/mL of each antibody with UltraComp eBeads, (ThermoFisher Scientific (Waltham, MA)). All samples were subject to flow cytometric profiling using a LSR Flow Cytometer (BD Biosciences (San Jose, CA)) and analysis as indicated using FlowJo software (BD Biosciences (San Jose, CA)).
For assessment of mouse tumor fucosylation, FFPE tumor sections were immunostained with FITC-conjugated AAL lectin (0.4 μg/mL, Vector Laboratories (Burlingame, CA)) and rabbit anti-Mart1+rabbit anti-S100 (melanoma marker cocktail). The slides were mounted with Vectashield+DAPI (Vector Laboratories (Burlingame, CA)). Four representative microscopy images per tumor were acquired using a Keyence BZ-X710, and images were process and analyzed using FIJI (NIH) as follows: melanoma marker-positive regions were assigned as regions of interest (ROI) in which we measured Integrated density of AAL signal. Integrated densities of control tumors were assigned as 1, and Integrated AAL density values of experimental tumors were divided by control to produce relative fold changes and plotted as column charts. […]

SM1 tumors = assay: Immunodepletion mouse model (CD4+ or CD8+ T cell depletion), SM1; assay type: in vivo, C57BL6 mice; conditions: CD4+ but not CD8+T cell depletion
Text: as §1, with “All samples were subject to flow cytometric profiling using a LSR Flow Cytometer (BD Biosciences (San Jose, CA)) and analysis as indicated using FlowJo software (BD Biosciences (San Jose, CA)).” left out

TUBO (mouse BC) = assay: TUBO breast cancer growth and TILs in immunocompetent mice, L-fuc dose escalation; assay type: in vivo, Balb/C mice; conditions: for TUBO tumor growth: immunocompetent Balb/C mice, L-fuc dose escalation (FIG. 3B)
mouse splenic MDSC = assay: Splenic MDSC proliferation with L-fuc or 2FF; assay type: cell-based; conditions: FIG. 3E

C[C@H](O)[C@@H](O)[C@@H](O)[C@H](O)C=O [L-fucose]
CD4+ and CD8+ T cells of total itICs [1]: doubled | increase of total itICs [1]: 10-50 fold | increase of tumor fucosylation [1]: ~2 fold | reduction of tumor growth [1]: ~50% | splenic lymphocyte profiles [1]: without altering | L-fuc-triggered tumor suppression and increases in total itICs (SM1 tumors): abrogated | fold-change in TIL subsets: MDSCs (TUBO (mouse BC); 500 vs. 0 mM L-fuc, TUBO tumors (FIG. 3D)): 3.1 fold | number of TILs/g tumor (TUBO (mouse BC); FIG. 3C): increased | fold increase in TIL subsets: CD4 T cells (TUBO (mouse BC); following L-fucose administration (FIG. 3D)): 3.1 fold | TUBO tumor growth (TUBO (mouse BC)): dose dependent decrease | TUBO tumor growth (TUBO (mouse BC); listed as L-fuc): suppresses | MDSC proliferation / MDSC populations (mouse splenic MDSC): increased | MDSC proliferation / MDSC populations (mouse splenic MDSC; listed as L-fuc): increases
